Measurements reported in patent publication US8618144B2, “Pyrrolidine-derived beta 3 adrenergic receptor agonists” (Merck Sharp & Dohme Corp, priority 2009, dated 2013).
Structures can show the parent of a compound that is named as a salt.

Target: T1, human β3 adrenergic receptor (Homo sapiens, UniProt P13945)
T1 construct: expressed in transfected cells; host or cells: Chinese hamster ovary (CHO) cells, stably transfected
Assay: Functional Assay: cAMP production in CHO cells stably transfected with cloned β3-adrenergic receptor (LANCE)
Type: cell-based
Settings: CHO cells expressing β3 receptor, range classes, read-out: Human β3 EC50
Procedure: Functional Assay: cAMP production in response to ligand is measured according to Barton et al (1991, Agonist-induced desensitization of D2 dopamine receptors in human Y-79 retinoblastoma cells. Mol. Pharmacol. […]) modified as follows. cAMP production is measured using a homogenous time-resolved fluorescence resonance energy transfer immunoassay (LANCE™, Perkin Elmer) according to the manufacture's instructions. Chinese hamster ovary (CHO) cells, stably transfected with the cloned β-adrenergic receptor (β1, β2 or β3) are harvested after 3 days of subculturing. Harvesting of cells is done with Enzyme-free Dissociation Media (Specialty Media). Cells are then counted and resuspended in assay buffer (Hank's Balanced salt solution supplemented with 5 mM HEPES, 0.1% BSA) containing a phosphodiesterase inhibitor (IBMX, 0.6 mM). The reaction is initiated by mixing 6,000 cells in 6 μL with 6 μL Alexa Fluor labeled cAMP antibody (LANCE™ kit) which is then added to an assay well containing 12 ul of compound (diluted in assay buffer to 2× final concentration). The reaction proceeds for 30 minutes at room temperature and is terminated by the addition of 24 μL detection buffer (LANCE™ kit). The assay plate is then incubated for 1 hour at room temperature and time-resolved fluorescence measured on a Perkin Elmer Envision reader or equivalent. The unknown cAMP level is determined by comparing fluorescence levels to a cAMP standard curve.
The non-selective, full agonist β-adrenergic ligand isoproterenol is used at all three receptors to determine maximal stimulation. The human β3 adrenergic receptor (AR) selective ligand (S)—N-[4-[2-[[2-hydroxy-3-(4-hydroxyphenoxy)propyl]amino]ethyl]-phenyl]-4-iodobenzenesulfonamide is used as a control in all assays. Isoproterenol is titrated at a final concentration in the assay of 10^−10 M to 10^−5 M and the selective ligand (S)—N-[4-[2-[[2-hydroxy-3-(4-hydroxyphenoxy)propyl]amino]ethyl]phenyl]-4-iodobenzenesulfonamide is titrated at the β3 receptor at concentration of 10^−10 M to 10^−5 M. Unknown ligands are titrated at all 3β-adrenergic receptor subtypes at a final concentration in the assay of 10^−10 M to 10^−5 M to determine the EC50. The EC50 is defined as the concentration of compound that gives 50% activation of its own maximum. Data are analyzed using Microsoft Excel and Graphpad Prism or an internally developed data analysis software package.

T1 sequence (P13945 whole entry): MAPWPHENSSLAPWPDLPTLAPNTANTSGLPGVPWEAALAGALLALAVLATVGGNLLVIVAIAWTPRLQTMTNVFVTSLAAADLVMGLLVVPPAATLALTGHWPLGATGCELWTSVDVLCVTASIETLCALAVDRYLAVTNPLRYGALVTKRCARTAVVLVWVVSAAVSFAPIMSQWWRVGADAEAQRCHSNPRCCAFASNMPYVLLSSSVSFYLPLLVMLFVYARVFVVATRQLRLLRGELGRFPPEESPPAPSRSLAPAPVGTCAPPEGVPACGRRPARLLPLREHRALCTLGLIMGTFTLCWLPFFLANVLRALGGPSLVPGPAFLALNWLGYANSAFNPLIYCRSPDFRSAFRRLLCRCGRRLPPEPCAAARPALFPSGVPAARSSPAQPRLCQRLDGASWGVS

Row | EC50 [nM] | Structure (SMILES)
1 | 1 to 10 | Cc1nc(CC(=O)Nc2ccc(C[C@@H]3CC[C@H]([C@H](O)COc4ccccc4)N3)cc2)c(C)s1 [Example 5]
2 | 1 to 10 | Cc1csc(CC(=O)Nc2ccc(C[C@@H]3CC[C@H]([C@H](O)COc4ccccc4)N3)cc2)n1 [Example 3]
3 | < 1 | O=C(Cc1nnc(-c2ccccc2)[nH]1)Nc1ccc(C[C@@H]2CC[C@H]([C@H](O)COc3ccccc3)N2)cc1 [Example 6]

Same assay, conditions: CHO cells expressing β3 receptor, read-out: human β3 functional activity (EC50)

Row | EC50 [nM] | Structure (SMILES)
4 | 100 to 1000 | Nc1nc(CC(=O)Nc2ccc(C[C@H]3CC[C@H]([C@H](O)COc4ccccc4)N3)cc2)cs1 [Example 11, 2-(2-Amino-1,3-thiazol-4-yl)-N-[4-({(2R,5R)-5-[(1S)-1-hydroxy-2-phenoxyethyl]pyrrolidin-2-yl}methyl)phenyl]acetamide bis trifluoroacetate salt]
5 | < 10 | O=S(=O)(Nc1ccc(C[C@@H]2CC[C@H]([C@H](O)COc3ccccc3)N2)cc1)c1ccc(I)cc1 [Example 13]
6 | < 1 | Nc1nc(CC(=O)Nc2ccc(C[C@@H]3CC[C@H]([C@H](O)COc4ccccc4)N3)cc2)cs1 [Example 1, 2-(2-Amino-1,3-thiazol-4-yl)-N-[4-({(2S,5R)-5-[(1S)-1-hydroxy-2-phenoxyethyl]pyrrolidin-2-yl}methyl)phenyl]acetamide bis-trifluoroacetate salt]
7 | < 1 | Nc1ncn(CC(=O)Nc2ccc(C[C@@H]3CC[C@H]([C@H](O)COc4ccccc4)N3)cc2)n1 [Example 15, 2-(3-Amino-1H-1,2,4-triazol-1-yl)-N-[4-({(2S,5R)-5-[(1S)-1-hydroxy-2-phenoxyethyl]pyrrolidin-2-yl}methyl)phenyl]acetamide trifluoroacetate salt]
8 | < 10 | O=S(=O)(Nc1ccc(C[C@@H]2CC[C@H]([C@H](O)COc3ccccc3)N2)cc1)c1ccc(-c2nc(-c3ccc(C(F)(F)F)cc3)cs2)cc1 [Example 12, N-[4-({(2S,5R)-5-[(1S)-1-Hydroxy-2-phenoxyethyl]pyrrolidin-2-yl}methyl)phenyl]-4-{4-[4-(trifluoromethyl)phenyl]-1,3-thiazol-2-yl}benzenesulfonamide trifluoroacetate salt]
9 | < 1 | CCCCCCNC(=O)Nc1ccc(S(=O)(=O)Nc2ccc(C[C@@H]3CC[C@H]([C@H](O)COc4ccccc4)N3)cc2)cc1 [Example 14, 4-{[(Hexylamino)carbonyl]amino}-N-[4-({(2S,5R)-5-[(1S)-1-hydroxy-2-phenoxyethyl]pyrrolidin-2-yl}methyl)phenyl]benzenesulfonamide trifluoroacetate salt]
